Reference: US9296722B2, “Azolyl urea compounds and methods of use thereof” (Ambit Biosciences Corporation, priority 2010, dated 2016)

Experiments:
M-NFS-60 cells = test: M-NFS-60 cell proliferation assay; assay type: cell-based, mouse; parameters: CSF1R Cell Proliferation (M-NFS-60) IC50 (nM): scale not given here; details: 72 hours incubation, Alamar Blue, M-CSF-dependent cells; for IC50: Mus musculus, read-out: CSF1R Cell Proliferation (M-NFS-60) IC50
Procedure: In certain embodiments, the compounds disclosed herein are tested in an M-NFS-60 cell proliferation assay to determine their cellular potency against CSF-1R. M-NFS-60s are mouse monocytic cells that depend on the binding of the ligand M-CSF to its receptor, CSF-1R, to proliferate Inhibition of CSF-1R kinase activity will cause reduced growth and/or cell death. This assay assesses the potency of compounds as CSF-1R inhibitors by measuring the reduction of Alamar Blue reagent by viable cells. An exemplary assay is described in the Examples section.
The compounds disclosed herein were tested in an M-NFS-60 cell proliferation assay to determine their cellular potency against CSF1R. M-NFS-60s are mouse monocytic cells that depend on the binding of the ligand M-CSF to its receptor, CSF1R, to proliferate Inhibition of CSF1R kinase activity will cause reduced growth and/or cell death. This assay assesses the potency of compounds as CSF1R inhibitors by measuring the reduction of Alamar Blue reagent by viable cells.
On day one of the experiment, M-NFS-60 cells were maintained in RPMI complete medium (Omega Scientific) plus 10% FBS supplemented with 20 ng/mL of M-CSF (R&D Systems). 96-well TC-treated, flat bottom plates were seeded at 10,000 cell/well at a volume of 100 μL per well. The cells were cultured overnight at 37° C. under 5% CO2.
On day two, compounds were added to the cells at 9 different concentrations, with half-log intervals alongside a control reference compound serving as a positive control. Final DMSO concentration was kept at 0.5% for a final volume of 200 μL. The compounds were allowed to incubate with the cells for 72 hours at 37° C. under 5% CO2.
On day five of the experiment, 40 μl of Alamar Blue reagent was added to each well and allowed to incubate for 3 hours. Alamar Blue fluorescence was read using SoftMax Pro software at 560 nm (excitation) and 590 nm (emission). IC50s were generated as an average of duplicates and represents the concentration of test compound that achieves 50% inhibition of cellular proliferation compared to control.

CSF1R (mouse) = target: T1, CSF1R (mouse) (Mus musculus, UniProt P09581); test: Competition binding assay, CSF1R (mouse) Kd
T1 construct: made in house; host or cells: T7 phage display or HEK-293 cells (alternatives, not resolved per kinase)
T1 sequence (P09581 20-977): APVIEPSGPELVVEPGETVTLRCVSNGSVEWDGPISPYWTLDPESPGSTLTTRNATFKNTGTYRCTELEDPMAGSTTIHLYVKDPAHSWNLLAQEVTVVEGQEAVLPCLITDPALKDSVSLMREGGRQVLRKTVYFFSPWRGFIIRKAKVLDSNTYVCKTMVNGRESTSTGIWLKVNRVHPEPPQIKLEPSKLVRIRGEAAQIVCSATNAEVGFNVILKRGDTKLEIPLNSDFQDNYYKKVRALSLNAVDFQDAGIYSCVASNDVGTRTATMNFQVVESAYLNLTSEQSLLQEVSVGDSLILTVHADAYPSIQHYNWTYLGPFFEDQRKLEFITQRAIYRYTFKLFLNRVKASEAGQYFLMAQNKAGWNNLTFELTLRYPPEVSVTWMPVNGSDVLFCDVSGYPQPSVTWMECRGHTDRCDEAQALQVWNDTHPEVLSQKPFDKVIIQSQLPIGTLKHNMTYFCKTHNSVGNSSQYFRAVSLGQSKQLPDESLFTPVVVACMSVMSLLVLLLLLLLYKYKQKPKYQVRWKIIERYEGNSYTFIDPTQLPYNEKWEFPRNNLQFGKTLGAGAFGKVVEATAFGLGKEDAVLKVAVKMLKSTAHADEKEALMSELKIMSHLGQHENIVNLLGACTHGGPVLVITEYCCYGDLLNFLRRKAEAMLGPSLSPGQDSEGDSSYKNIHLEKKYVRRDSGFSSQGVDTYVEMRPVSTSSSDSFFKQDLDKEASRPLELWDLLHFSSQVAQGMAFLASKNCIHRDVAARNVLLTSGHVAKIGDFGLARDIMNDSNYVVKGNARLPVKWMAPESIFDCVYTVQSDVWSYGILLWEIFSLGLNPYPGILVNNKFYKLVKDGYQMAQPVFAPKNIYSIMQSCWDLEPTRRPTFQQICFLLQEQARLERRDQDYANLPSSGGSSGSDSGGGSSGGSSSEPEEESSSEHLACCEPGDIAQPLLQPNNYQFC
Procedure: (§1) The liganded beads were blocked with excess biotin and washed with blocking buffer (SeaBlock (Pierce), 1% BSA, 0.05% Tween 20, 1 mM DTT) to remove unbound ligand and to reduce non-specific binding. […] Test compounds were prepared as 100× stocks in DMSO and diluted into the aqueous environment. Kds were determined using an eleven point threefold serial dilutions. DMSO or control compounds were was added to control assays lacking a test compound. […] The kinase concentration in the eluates was measured by quantitative PCR.

CSF1R (human) = target: T2, CSF1R (human) (Homo sapiens, UniProt P07333); test: Competition binding assay, CSF1R (human) Kd
T2 construct: made in house; host or cells: T7 phage display or HEK-293 cells (alternatives, not resolved per kinase)
Procedure: as §1

[1] = target: kinase panel containing either 359 or 386 distinct kinases; test: Competition binding assay, selectivity score (S10) against a panel of kinases; details: compounds at 10 μM; fraction of kinases with percent of control less than 10
Procedure: Competition binding assays used herein were developed, validated and performed as described in Fabian et al., Nature Biotechnology 2005, 23, 329-336. Kinases were produced as fusions to T7 phage (See, Fabian et al. or WO04/015142) or alternatively, the kinases were expressed in HEK-293 cells and subsequently tagged with DNA for PCR detection (See, WO08/005,310). […] The liganded beads were blocked with excess biotin and washed with blocking buffer (SeaBlock (Pierce), 1% BSA, 0.05% Tween 20, 1 mM DTT) to remove unbound ligand and to reduce non-specific binding. […] Test compounds were prepared as 100× stocks in DMSO and diluted into the aqueous environment. Kds were determined using an eleven point threefold serial dilutions. DMSO or control compounds were was added to control assays lacking a test compound. Primary screen assays were performed in polypropylene 384-well plates in a final volume of 20-40 μL, while Kd determinations were performed in polystyrene 96-well plates in a final volume of […]. […] The kinase concentration in the eluates was measured by quantitative PCR.
A selectivity score (S10) is a quantitative measure of selectivity of a compound against a panel of kinases. An S10 was calculated for a compound by dividing the number of kinases found to have a percent of control (DMSO) less than 10 by the total number of distinct kinases tested (excluding mutant variants). Percent of control (POC) is calculated by subtracting the signal of the control compound
(POC=0) from the signal of the test compound and dividing the outcome by the signal of DMSO (POC=100) minus the signal of the control compound. For the compounds disclosed herein, S10 scores were obtained by testing the compounds at 10 μM concentration in a kinase panel containing either 359 or 386 distinct kinases.

T2 sequence (P07333 20-972): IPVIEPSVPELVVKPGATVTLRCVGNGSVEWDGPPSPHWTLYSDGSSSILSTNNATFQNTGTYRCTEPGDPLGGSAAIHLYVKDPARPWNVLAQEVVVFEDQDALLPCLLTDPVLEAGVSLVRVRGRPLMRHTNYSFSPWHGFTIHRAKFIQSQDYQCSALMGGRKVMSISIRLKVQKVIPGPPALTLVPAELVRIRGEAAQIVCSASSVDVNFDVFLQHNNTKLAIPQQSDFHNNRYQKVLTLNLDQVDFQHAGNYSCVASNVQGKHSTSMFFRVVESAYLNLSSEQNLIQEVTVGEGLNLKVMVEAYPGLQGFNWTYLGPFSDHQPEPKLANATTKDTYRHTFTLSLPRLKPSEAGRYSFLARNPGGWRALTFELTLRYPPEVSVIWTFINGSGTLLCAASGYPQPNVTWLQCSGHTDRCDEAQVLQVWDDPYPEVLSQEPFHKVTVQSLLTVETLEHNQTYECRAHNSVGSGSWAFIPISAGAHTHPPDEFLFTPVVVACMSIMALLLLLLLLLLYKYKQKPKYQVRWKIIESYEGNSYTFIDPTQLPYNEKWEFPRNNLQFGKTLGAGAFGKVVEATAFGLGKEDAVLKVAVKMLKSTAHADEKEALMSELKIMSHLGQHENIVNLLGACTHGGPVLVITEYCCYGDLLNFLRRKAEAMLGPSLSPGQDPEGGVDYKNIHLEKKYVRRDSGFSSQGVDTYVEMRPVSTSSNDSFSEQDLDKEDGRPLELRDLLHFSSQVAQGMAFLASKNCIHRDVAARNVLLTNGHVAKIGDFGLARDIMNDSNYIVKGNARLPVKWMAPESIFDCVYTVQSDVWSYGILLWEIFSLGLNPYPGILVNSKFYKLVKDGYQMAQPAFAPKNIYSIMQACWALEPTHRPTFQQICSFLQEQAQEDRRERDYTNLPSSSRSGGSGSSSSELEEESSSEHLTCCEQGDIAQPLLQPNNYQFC

SMILES	Kd (CSF1R (mouse))	Kd (CSF1R (human))	Kinase Specificity (S10) [1]	IC50 (M-NFS-60 cells)	CSF1R Cell Proliferation (M-NFS-60) IC50 (nM) (M-NFS-60 cells)
CN1CCN(c2ccc(C(=O)Nc3ccc(NC(=O)Nc4cc(C(C)(C)C)on4)cc3)nc2)CC1	< 0.003 µM	< 0.003 µM	C (C > 0.05)	≤ 0.1 µM	–
CN1C(C)(C)CC(Oc2ccc(C(=O)Nc3ccc(NC(=O)Nc4cc(C(C)(C)C)nn4C)cc3)nc2)CC1(C)C	–	0.003 to 0.01 µM	B (0.03 < B ≦ 0.05)	0.1 to 0.25 µM	–
CC(C)N1CC[C@H](Oc2ccc(C(=O)Nc3ccc(NC(=O)Nc4cc(C(C)(C)C)on4)cc3)nc2)C1	–	< 0.003 µM	C (C > 0.05)	≤ 0.1 µM	–
CCN1CCC(Oc2ccc(C(=O)Nc3ccc(NC(=O)Nc4cc(C(C)(C)C(F)(F)F)on4)cc3)nc2)CC1	–	< 0.003 µM	C (C > 0.05)	≤ 0.1 µM	–
CN(C)C(=O)CN1CCC(Oc2ccc(C(=O)Nc3ccc(NC(=O)Nc4cc(C(C)(C)C)on4)cc3)nc2)C1 (stereo not shown)	–	< 0.003 µM	B (0.03 < B ≦ 0.05)	≤ 0.1 µM	–
CN1C2CCC1CC(Oc1ccc(C(=O)Nc3ccc(NC(=O)Nc4cc(C(C)(C)C)on4)cc3)nc1)C2 (stereo not shown)	–	< 0.003 µM	C (C > 0.05)	≤ 0.1 µM	–
CCN1C(C)(C)CC(Oc2ccc(C(=O)Nc3ccc(NC(=O)Nc4cc(C(C)(C)C)no4)cc3)nc2)CC1(C)C	–	> 0.01 µM	B (0.03 < B ≦ 0.05)	≤ 0.1 µM	–
CC(C)(C)c1cc(NC(=O)Nc2ccc(NC(=O)c3ccc(OC4CN5CCC4CC5)cn3)cc2)no1 (stereo not shown)	–	< 0.003 µM	C (C > 0.05)	≤ 0.1 µM	–
CC(C)N1CCC(Oc2ccc(C(=O)Nc3ccc(N(C)C(=O)Nc4cc(C(C)(C)C)on4)cc3)nc2)C1 (stereo not shown)	–	< 0.003 µM	C (C > 0.05)	0.1 to 0.25 µM	–

Continued, in another order:

Kd (CSF1R (mouse))	Kd (CSF1R (human))	Kinase Specificity (S10) [1]	SMILES	IC50 (M-NFS-60 cells)	CSF1R Cell Proliferation (M-NFS-60) IC50 (nM) (M-NFS-60 cells)
< 0.003 µM	< 0.003 µM	B (0.03 < B ≦ 0.05)	CC(C)N1CCC(Oc2ccc(C(=O)Nc3ccc(NC(=O)Nc4cc(C(C)(CF)CF)on4)cc3)nc2)CC1	≤ 0.1 µM	–
> 0.01 µM	> 0.01 µM	A (A ≦ 0.03)	CC(C)(C)c1cc(NC(=O)Nc2ccc(NC(=O)c3cccc(CN)n3)cc2)no1.Cl	0.25 to 1 µM	–
< 0.003 µM	0.003 to 0.01 µM	A (A ≦ 0.03)	CC(C)(C)c1cc(NC(=O)Nc2ccc(NC(=O)c3cc(OCCN4CCOCC4)ccn3)cc2)no1	–	B/C
–	< 0.003 µM	A (A ≦ 0.03)	CN1C(C)(C)CC(Oc2ccc(C(=O)Nc3ccc(NC(=O)Nc4cc(C(C)(C)F)no4)cc3)nc2)CC1(C)C	≤ 0.1 µM	–
–	< 0.003 µM	C (C > 0.05)	CC(C)N1CC[C@@H](Oc2ccc(C(=O)Nc3ccc(NC(=O)Nc4cc(C(C)(C)C)on4)cc3)nc2)C1	≤ 0.1 µM	–
–	< 0.003 µM	B (0.03 < B ≦ 0.05)	CN1C(C)(C)CC(Oc2ccc(C(=O)Nc3ccc(NC(=O)Nc4cc(C(C)(CF)CF)on4)cc3)nc2)CC1(C)C	≤ 0.1 µM	–
–	< 0.003 µM	B (0.03 < B ≦ 0.05)	CC(C)(C)c1cc(NC(=O)Nc2ccc(NC(=O)c3ccc(OC4CCN(C5COC5)C4)cn3)cc2)no1 (stereo not shown)	≤ 0.1 µM	–
–	0.003 to 0.01 µM	B (0.03 < B ≦ 0.05)	CC(C)N1CCC(Oc2ccc(C(=O)Nc3ccc(NC(=O)Nc4cc(C(C)(C)C)no4)cc3)nc2)CC1	≤ 0.1 µM	–
–	< 0.003 µM	C (C > 0.05)	CC(C)(C)c1cc(NC(=O)Nc2ccc(NC(=O)c3ccc(OC[C@H]4CCCN5CCCC[C@@H]45)cn3)cc2)no1	≤ 0.1 µM	–
–	< 0.003 µM	C (C > 0.05)	CN1C(C)(C)CC(Oc2ccc(C(=O)Nc3ccc(NC(=O)Nc4cc(C(F)(F)F)n(C)n4)cc3)nc2)CC1(C)C	0.25 to 1 µM	–
–	0.003 to 0.01 µM	C (C > 0.05)	Cc1cc(NC(=O)Nc2cc(C(C)(C)C)on2)ccc1NC(=O)c1ccc(OC2CC(C)(C)N(C)C(C)(C)C2)cn1	> 1 µM	–
–	0.003 to 0.01 µM	A (A ≦ 0.03)	COc1cc(NC(=O)c2ccc(OC3CC(C)(C)N(C)C(C)(C)C3)cn2)ccc1NC(=O)Nc1cc(C(C)(C)C)on1	> 1 µM	–
–	0.003 to 0.01 µM	B (0.03 < B ≦ 0.05)	CCN1CCC(Oc2ccc(C(=O)Nc3ccc(NC(=O)Nc4cc(C(C)(C)C)no4)cc3)nc2)CC1	≤ 0.1 µM	–
